According to publication PMC7824787, “Design, Synthesis and In Vitro Investigation of Novel Basic Celastrol Carboxamides as Bio-Inspired Leishmanicidal Agents Endowed with Inhibitory Activity against Leishmania Hsp90” (Biomolecules, 2021):
Read-outs that look alike come from different tables or passages of the source.

Key:
L. tropica promastigotes = assay: Antileishmanial activity on L. tropica promastigotes (MTT); type: cell-based
Procedure: (§1) Promastigote stage of L. infantum (MHOM/TN/80/IPT1, kindly provided by Dr. M. Gramiccia and Dr. T. Di Muccio, ISS, Roma) and L. tropica (MHOM/SY/2012/ISS3130) were cultured in RPMI 1640 medium (EuroClone) supplemented with 15% heat-inactivated fetal calf serum (EuroClone, Milan, Italy), 20 mM HEPES, and 2 mM L-glutamine at 23 °C. The MTT (3-[4.5-dimethylthiazol-2-yl]-2.5-diphenyltetrazolium bromide) method was used to estimate the 50% inhibitory concentration (IC50), with some modifications. Compounds were dissolved in DMSO and then diluted with medium to achieve the required concentrations. Test compounds were placed in 96 wells round bottom microplates and seven serial dilutions made. Amphotericin B was used as the reference antileishmanial drug. Parasites were diluted in complete medium to 5 × 10^6 parasites/mL and 100 μL of the suspension was seeded into the plates and incubated at 23 °C for 72 h. Then 20 μL of MTT solution (5 mg/mL) was added into each well, after 3 h the plates were centrifuged, the supernatants discarded and the resulting pellets dissolved in 100 μL of lysing buffer consisting of 20% (w/v) of a solution of SDS (Sigma), 40% of N,N-dimethylformamide (Merck) in H2O. The absorbance of the obtained solutions was measured at a wavelength of 550 nm with a reference at 650 nm with a microplate spectrophotometer (Synergy 4-Biotek, Milan, Italy) and analyzed with the Gen5® software for data processing.
(§2) The results are expressed as IC50, the dose of compound that is necessary to inhibit cell growth by 50%; each IC50 value is the mean ± standard deviation of at least three separate experiments performed in duplicate.

HMEC-1 = assay: Cytotoxicity on HMEC-1 (MTT); type: cell-based, human; conditions: Homo sapiens, read-out: Healthy Cell Lines IC50, HMEC-1
Procedure: (§3) Cytotoxicity was evaluated on human microvascular endothelial cells (HMEC-1, provided by the Centers for Disease Control, Atlanta, GA, USA), on immortalized mouse C57Bl/6 bone marrow derived macrophages (BMDM) from wild type lineage (generated in the laboratories of Drs. Douglas Golenbock and Kate Fitzgerald, University of Massachusetts, Worcester, MA, USA) and on a human acute monocytic leukaemia cell line (THP-1).
(§4) HMEC-1 were maintained in MCDB 131 medium (Invitrogen, Milan, Italy) supplemented with 10% fetal calf serum (HyClone), 10 ng/mL of epidermal growth factor, 1 μg/mL of hydrocortisone, 2 mM glutamine and 20 mM HEPES buffer, at 37 °C in 5% CO2. BMDM were maintained in DMEM (Euroclone) medium supplemented with 10% fetal bovine serum (HyClone, Celbio, Milan, Italy), 2 mM glutamine, and 25 mM of HEPES buffer solution (Euroclone). THP-1 were maintained in RPMI supplemented with 10% heat-inactivated FCS, 50 µM 2-mercaptoethanol, 10 µM sodium pyruvate, 20 mM HEPES, and 2 mM glutamine. In order to achieve differentiation into macrophages, cells were treated with 10 ng/mL phorbol myristate acetate (PMA) for 72 h.
(§5) For the cytotoxicity assay, cells were seeded in 96 well flat bottom tissue culture clusters (Costar, New York, NY, USA) at the following concentrations: HMEC 10^5 cell/mL, BMDM at 10^6 cell/mL, THP1 at 5 × 10^5 cell/mL. After 24 h, cells were treated with serial dilutions of test compounds in a final volume of 200 µL/well. Cell proliferation was evaluated after 72 h using the MTT assay.
(§6) The absorbances were measured with a microplate spectrophotometer (Synergy 4-Biotek) at a test wavelength of 550 nm and a reference wavelength of 650 nm. The results are expressed as IC50 as the concentration inhibiting 50% of cell growth. Each IC50 value is the mean and standard deviation of at least three separate experiments performed in duplicate.

THP-1 = assay: Cytotoxicity on THP-1 (MTT); type: cell-based, human; conditions: Homo sapiens, THP-1; PMA-differentiated, 72 h, MTT; read-out: Healthy Cell Lines IC50, THP-1
Procedure: as §3, §4, §5, §6

L. infantum amastigotes = assay: Antileishmanial activity on intramacrophage amastigotes of L. infantum; type: cell-based, Leishmania infantum
Procedure: Cell monolayers were then washed and incubated in the presence of test compounds for 72 h. Slides were fixed with methanol and stained with Giemsa. The percentage of infected macrophages in treated and non-treated cells was determined by light microscopy.

[1] = test system: L. infantum promastigotes; assay: Antileishmanial activity on L. infantum promastigotes (MTT); type: cell-based
Procedure: as §1, §2

BMDM = assay: Cytotoxicity on BMDM (MTT); type: cell-based, mouse; conditions: Mus musculus, BMDM; 72 h, MTT; read-out: Healthy Cell Lines IC50, BMDM
Procedure: as §3, §4, §5, §6

LbHsp90 = LbHsp90 (Leishmania braziliensis, UniProt A4HL70); assay: In vitro inhibition of the ATPase activity of LbHsp90 (Malachite Green Phosphate Assay); type: biochemical; conditions: 7 μM LbHsp90, 27 °C, 60 min
Sequence of LbHsp90 (A4HL70 entry or part of it): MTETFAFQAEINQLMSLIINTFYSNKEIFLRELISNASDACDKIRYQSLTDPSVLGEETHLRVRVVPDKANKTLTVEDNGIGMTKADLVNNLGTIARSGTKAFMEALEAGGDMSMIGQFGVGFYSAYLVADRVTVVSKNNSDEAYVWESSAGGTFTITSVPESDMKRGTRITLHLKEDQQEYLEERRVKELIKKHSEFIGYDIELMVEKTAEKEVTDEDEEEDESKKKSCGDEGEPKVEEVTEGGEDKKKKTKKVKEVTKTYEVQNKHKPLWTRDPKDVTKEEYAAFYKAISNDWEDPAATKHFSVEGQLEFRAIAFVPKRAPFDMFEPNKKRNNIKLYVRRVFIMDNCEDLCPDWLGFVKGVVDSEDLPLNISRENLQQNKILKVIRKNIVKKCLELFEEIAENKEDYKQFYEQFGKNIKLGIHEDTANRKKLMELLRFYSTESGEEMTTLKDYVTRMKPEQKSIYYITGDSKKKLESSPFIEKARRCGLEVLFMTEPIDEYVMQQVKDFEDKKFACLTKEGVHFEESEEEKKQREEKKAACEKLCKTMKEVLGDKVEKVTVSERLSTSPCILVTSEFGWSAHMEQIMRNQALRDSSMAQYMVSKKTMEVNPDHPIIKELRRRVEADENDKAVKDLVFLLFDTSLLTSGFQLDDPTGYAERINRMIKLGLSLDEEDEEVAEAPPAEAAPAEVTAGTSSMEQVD
From the text: To evaluate in vitro the modulatory activity of CE, PR and CE caboxamides, a full-length recombinant Hsp90 from L. braziliensis (LbHsp90) was produced in E. coli BL21 DE3 harboring the pET28a_LbHsp90 coding for the C-terminal His-tagged target chaperone (genbank number: XP_001567804.1, full sequence is reported in Appendix B). Pratically, the plasmid pET28a_LbHsp90, kindly donated by professor J.C. Borges, was transformed in E. coli BL21 DE3 using the TransformAid Bacterial Transformation Kit (Thermo Fisher, Waltham, MA, USA). Subsequently, the obtained transformants were grown overnight in LB medium containing 30 μg mL^−1 kanamycin (LBkan30) and then inoculated in 1 L SB kan30 medium (Yeast extract 30 g L^−1, Tryptone 20 g L^−1, NaCl 10 g L^−1) at 37 °C and 220 rpm. When the OD600 reached 0.5–1, gene expression was induced by the addition of 2 mL of 1 M IPTG solution in water and the culture was shifted at 30 °C for 24 h. After cell harvesting by centrifugation (5000 rpm for 30 min), the cell pellet was resuspended in 20 mL of wash buffer (20 mM HEPES buffer, pH 7.0, 500 mM NaCl, 20 mM imidazole) and recombinant E. coli BL21DE3 cells were disrupted by ultrasonication. LbHsp90 was subsequently purified using a Nickel Sepharose 6 Fast Flow agarose resin (Ni-NTA) (GE Healthcare, Milan, Italy) as follows. Soluble protein fraction was separated from cell debris by centrifugation (10,000 rpm for 30min) after cell ultrasonication, and clear lysates were incubated with the Ni-NTA resin for 90 min at 4 °C under mild shaking and loaded onto a glass column (10 × 110 mm). The resin was then washed with 10mL of wash buffer and His-tagged LbHsp90 was eluted using a 3 step gradient (10 mL washing buffer containing 100, 200, and 300 mM imidazole, respectively) and dialyzed against 20 mM HEPES buffer (20 mM, pH 7.5), at 4 °C overnight. The protein content was measured using the Bio-Rad Protein Assay (Hercules, CA, USA) according to the Bradford method and the protein purity was verified by SDS-PAGE analysis (10% T, 2.6% C). It is worth noting that to avoid interferences with the assays described below, proteins were purified and conserved in HEPES buffer (20 mM, pH 7.5) in place of the standard PB-buffer. Reported data are the mean of two experiments run in duplicate.
Modulatory activity toward the ATPase cycle of LbHsp90 was determined using a Malachite Green Phosphate Assay Kit (Catalog Number MAK307, Sigma-Aldrich®, St. Louis, MO, USA). Analyses were run in a 96-well plate directly following the quantitative formation of a green complex between Malachite Green, molybdate, and free orthophosphate (Pi) produced by ATP hydrolysis catalyzed by the chaperone. Color formation from the reaction was measured on a plate reader at 620 nm. Briefly, the IC50 of CE and its derivatives were extrapolated from a set of dose-response curves obtained by calculating the amount of Pi produced by LbHsp90 in the presence of different compounds concentrations.
Reactions were run in HEPES buffer (20 mM, pH 7.5) containing 3 mM MgCl2 and 50 mM KCl in the presence of different compounds concentrations ([…]), LbHsp90 (7 μM) and ATP (25 mM) at 27 °C for 60 min. OD620 was measured 30 min after Malachite Green reactants addition.
LbHsp90 native activity was measured by conducting the reaction in the presence of just LbHsp90 and ATP and extrapolating the concentration of Pi obtained.
Three sets of control experiments, (1) ATP background hydrolysis, (2) compounds-related interferences and (3) protein-related background coloration, were run as follow: • (1) ATP (25 mM) incubated at 27 °C for 60 min • (2) Compounds (different concentrations) incubated with ATP (25 mM) at 27 °C for 60 min • (3) LbHsp90 (7 μM) at 27 °C for 60 min
The in vitro performances of CE, PR and the carboxamides 1–11 (Figure 4) as potential inhibitors of the Leishmania braziliensis Hsp90 were investigated using Sigma-Aldrich® Malachite Green Phosphate Assay Kit. […]

| IC50 (L. tropica promastigotes; Leishmania tropica, 72 h, 23 °C, MTT, read-out: Leishmania Promastigotes IC50, L. tropica) [nM] | IC50 (L. infantum amastigotes; Leishmania infantum, infected THP-1 macrophages, 72 h) [nM] | IC50 ([1]; Leishmania infantum, 72 h, 23 °C, MTT, read-out: Leishmania Promastigotes IC50, L. infantum) [nM] | Compound | IC50 (HMEC-1; HMEC-1, 72 h, MTT) [nM] | IC50 (THP-1) [nM] | S.I. (selectivity index) (L. infantum amastigotes; ratio IC50 on THP-1 cell line / IC50 toward L. infantum amastigotes) | IC50 (BMDM) [nM] | melting point [°C] | IC50 (L. tropica promastigotes; Leishmania tropica; 72 h, 23 °C, MTT; read-out: Leishmania Promastigotes IC50, L. tropica) [nM] | IC50 (HMEC-1; HMEC-1, 72 h) [nM] | IC50 ([1]; Leishmania infantum; 72 h, 23 °C, MTT; read-out: Leishmania Promastigotes IC50, L. infantum) [nM] | IC50 (LbHsp90) [nM] |
| --- | --- | --- | --- | --- | --- | --- | --- | --- | --- | --- | --- | --- |
| 170 ± 20 | 180 ± 30 | 160 ± 50 | C[C@@H]1[C@H](O)[C@@H](C)/C=C/C=C/C=C/C=C/C=C/C=C/C=C/[C@H](O[C@@H]2O[C@H](C)[C@@H](O)[C@H](N)[C@@H]2O)C[C@@H]2O[C@](O)(C[C@@H](O)C[C@@H](O)[C@H](O)CC[C@@H](O)C[C@@H](O)CC(=O)O[C@H]1C)C[C@H](O)[C@H]2C(=O)O [AMP, amphotericin B, reference compound] | > 20000 | > 20000 | >109 | > 20000 |  |  |  |  |  |
|  |  |  | C=CCSSCCNC(=O)[C@]1(C)CC[C@]2(C)CC[C@]3(C)C4=CC=C5C(=CC(=O)C(O)=C5C)[C@]4(C)CC[C@@]3(C)[C@@H]2C1 [compound 10, (2R,4aS,6aS,12bR,14aS,14bR)-N-(2-(allyldisulfanyl)ethyl)-10-hydroxy-2,4a,6a,9,12b,14a-hexamethyl-11-oxo-1,2,3,4,4a,5,6,6a,11,12b,13,14,14a,14b-tetradecahydropicene-2-carboxamide] |  | 930 ± 270 |  | 2860 ± 170 | 173.7 to 175.1 | 340 ± 210 | 170 ± 40 | 460 ± 120 | > 125000 |
